Data taken from patent US20020040032A1, “Methods for stimulation of synthesis of synaptophysin in the central nervous system” (priority 2000, published 2002).

Legend:
synaptophysin [1] = assay: Synaptophysin levels in PC12 cells after treatment, Western immunoblot (Example 1); format: cell-based
Protocol: PC12 cells were first grown to 70-80% confluence in the regular medium. A day prior to the experiment, PC12 cells were subcultured uniformly onto the plate with minimum cellular aggregation/clumping to approximately 1×10^6 cells per 60-mm plate. The PC12 cells were then subjected to treatments with either AIT-082, NGF, bFGF or a combination as previously described (5). AIT-082 was added into separate plates at […]: 0, 5, 20, 30, 50, 100, 300 ng/ml and also 1, 3, 10, 30, 100 μg/ml. For comparative purposes, cultures were treated with NGF at 10 and 50 ng/ml, and bFGF was used at 50 ng/ml. Additional cultures contained both AIT-082 (300 ng/ml) and either NGF (50 ng/ml) or bFGF (50 ng/ml). These different agents were prepared in the same culture medium and added to the respective plate. Following incubation for 48 hours, the conditioned medium from each plate was collected.
Total proteins from the conditioned media were analyzed on a 12% polyacrylamide gel containing SDS (SDS-PAGE), and western blot analysis was performed in the Mini-PROTEAN II system of Bio-Rad as described previously (7). Levels of synaptophysin in the conditioned medium and the cell lysates (intracellular) were analyzed using an anti-synaptophysin antibody (Boehringer Mannheim). A biotinylated secondary antibody, horse anti-mouse (Boehringer Mannheim), was also used. The detection system was based on the avidin-biotinylated-complex (Vector labs, Burlingame, Calif.) and enzymatic color reactions.

[2] = test system: nerve growth factor (NGF), neurotrophin-3, and basic fibroblast growth factor (bFGF); details: reference 4 (Rathbone et al. 1999); cited from earlier work
PC12 cells = assay: Differentiation of PC12 cells (Example 2); format: cell-based
synaptophysin [3] = assay: Time course of synaptophysin accumulation after administration to PC12 cells, Western immunoblot (Example 2); format: cell-based
Protocol: To determine the time course of synaptophysin accumulation in the extracellular fluid after administration of AIT-082 or NGF to PC12 cells, an experiment similar to the experiment of Example 1 was carried out using multiple time points. Five to six million PC12 cells were treated in RPMI 1640 and 0.5% FBS with doses of AIT-082 (10 nM-100 μM). […] Levels of synaptophysin in samples from conditioned media and cell lysates were measured by Western immunoblotting with anti-synaptophysin antibodies.

## O=C(CCn1cnc2c(=O)[nH]cnc21)Nc1ccc(C(=O)O)cc1 [AIT-082, N-4-carboxyphenyl-3-(6-oxohydropurin-9-yl)propanamide]
Synaptophysin [1]; PC12 cells, conditioned medium, densitometry, FIG. 2
  dose giving the highest level of synaptophysin: 30 ng/mL
Synaptophysin [1]; PC12 cells, dose-dependent from 5-30 ng/ml, FIG. 1 lanes 5-8 vs. lane 1
  amount of synaptophysin in the conditioned medium vs. control: increased
Synaptophysin [1]; PC12 cells, doses above 30 ng/ml, increase not sustained to the same extent
  level of synaptophysin in the conditioned medium vs. control at higher doses: still greater than the control
Synaptophysin [1]; PC12 cultures, cell lysates
  intracellular levels of synaptophysin vs. control: significant increase
[2]
  induction of expression of neurotrophins: can induce the expression of at least three neurotrophins
PC12 cells; cotreatment with NGF
  effect of cotreatment on NGF-mediated differentiation: enhanced NGF-mediated differentiation
Synaptophysin [3]; 10 nM-100 μM, 6, 12, 24, 48, or 72 hours, each time point
  levels of synaptophysin in the conditioned medium vs. control: significantly increased
Synaptophysin [3]; cell lysates, 10 nM-100 μM
  intracellular levels of synaptophysin: significant increase

## NGF: Nerve growth factor procured from Life Technologies
PC12 cells
  phenotype after treatment: sympathetic neuronal phenotypes
